Data published in patent US9657351B2, “MRNA-based gene expression for personalizing patient cancer therapy with an MDM2 antagonist” (Hoffmann-La Roche Inc., priority 2013, dated 2017).

Legend:
Test in all cases: COMPOUND A In Vitro Assay
Format in all cases: cell-based
RL95-2 = details: Homo sapiens, Uterus, endometrium, TP53 Mutant
How it was run: (§1)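 Treat human cancer cells with RG7112. Measure response by high-throughput screening. Calculate IC50. Classify: <=1 sensitive, >=10 resistant.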

MDA-MB-361 = details: Homo sapiens, Breast, mammary gland, TP53 Mutant
How it was run: as §1

NCCIT = details: Homo sapiens, Germ cell, gametocyte, TP53 Mutant
How it was run: as §1

HCC1500 = details: Homo sapiens, Breast, mammary gland, TP53 Wild type
How it was run: as §1

HT-1080 = details: Homo sapiens
How it was run: as §1

NCI-H1395 = details: Homo sapiens, Lung, TP53 Wild type
How it was run: as §1

DU-4475 = details: Homo sapiens, Breast, mammary gland, TP53 Wild type
How it was run: as §1

U-138 MG = details: Homo sapiens, U138-MG, Brain, TP53 Mutant
How it was run: as §1

PC-13 = details: Homo sapiens, Lung, TP53 Mutant
How it was run: as §1

A-375 = details: Homo sapiens
How it was run: as §1

MOLM-13 = details: Homo sapiens
How it was run: as §1

Calu-3 = details: Homo sapiens, Lung, TP53 Mutant
How it was run: as §1

PC-1 = details: Homo sapiens, tissue null, TP53 Wild type
How it was run: as §1

PLC/PRF/5 = details: Homo sapiens, Liver, TP53 Mutant
How it was run: as §1

ARH-77 = details: Homo sapiens, Lymphocyte B, peripheral blood, TP53 Mutant
How it was run: as §1

NIH:OVCAR-3 = details: Homo sapiens, Ovary, TP53 Mutant
How it was run: as §1

U-118 MG = details: Homo sapiens, Brain, TP53 Mutant
How it was run: as §1

T-47D = details: Homo sapiens, T47D, Breast, mammary gland, TP53 Mutant
How it was run: as §1

NCI-H1650 = details: Homo sapiens, Lung, TP53 Mutant
How it was run: as §1

KELLY = details: Homo sapiens, Brain, TP53 Mutant
How it was run: as §1

KYSE-150 = details: Homo sapiens, Esophagus, TP53 Mutant
How it was run: as §1

HUP-T4 = details: Homo sapiens, Pancreas, TP53 Mutant
How it was run: as §1

OPM-2 = details: Homo sapiens, Lymphocyte B, TP53 Mutant
How it was run: as §1

NCI-H2030 = details: Homo sapiens, Lung, TP53 Mutant
How it was run: as §1

K-562 = details: Homo sapiens, K562, Bone marrow, TP53 Mutant
How it was run: as §1

HDLM-2 = details: Homo sapiens, Lymphocyte B, TP53 Mutant
How it was run: as §1

HCC1954 = details: Homo sapiens, Breast, mammary gland, TP53 Mutant
How it was run: as §1

KARPAS-299 = details: Homo sapiens, Blood, TP53 Mutant
How it was run: as §1

BT-483 = details: Homo sapiens, Breast, mammary gland, TP53 Mutant
How it was run: as §1

NCI-H716 = details: Homo sapiens, Intestine, large, caecum, TP53 Mutant
How it was run: as §1

HuH-28 = details: Homo sapiens, Gall bladder, TP53 Mutant
How it was run: as §1

Hep3B = details: Homo sapiens, Liver, TP53 Mutant
How it was run: as §1

NCI-H2170 = details: Homo sapiens, Lung, TP53 Mutant
How it was run: as §1

IMR-32 = details: Homo sapiens
How it was run: as §1

CEM/C2 = details: Homo sapiens, Lymphocyte T, peripheral blood, TP53 Mutant
How it was run: as §1

SK-N-F1 = details: Homo sapiens, Brain, TP53 Mutant
How it was run: as §1

CCOc1cc(C(C)(C)C)ccc1C1=N[C@@](C)(c2ccc(Cl)cc2)[C@@](C)(c2ccc(Cl)cc2)N1C(=O)N1CCN(CCCS(C)(=O)=O)CC1 [COMPOUND A]
IC50 (RL95-2): 9.3 µM | IC50 (MDA-MB-361): 21 µM | IC50 (NCCIT): 11 µM | IC50 (HCC1500): 1 µM | IC50 (HT-1080; HT-1080, HT-1080, Connective tissue, TP53 Wild type): 0.058 µM | IC50 (HT-1080; HT-1080, HT-1080 cells): 0.1 µM | IC50 (NCI-H1395): 1.3 µM | IC50 (DU-4475): 2.1 µM | IC50 (U-138 MG): 29 µM | IC50 (PC-13): 14 µM | IC50 (A-375; A-375, A-375, Skin, TP53 Wild type): 0.32 µM | IC50 (A-375; A-375, A-375 cells): 0.3 µM | IC50 (MOLM-13; MOLM-13, MOLM-13, Blood, TP53 Wild type): 0.19 µM | IC50 (MOLM-13; MOLM-13, MOLM-13 cells): 0.2 µM | IC50 (Calu-3): 11 µM | IC50 (PC-1): 1.3 µM | IC50 (PLC/PRF/5): 7 µM | IC50 (ARH-77): 17 µM | IC50 (NIH:OVCAR-3): 17 µM | IC50 (U-118 MG): 19 µM | IC50 (T-47D): 9.9 µM | IC50 (NCI-H1650): 10 µM | IC50 (KELLY): 15 µM | IC50 (KYSE-150): 3 µM | IC50 (HUP-T4): 17 µM | IC50 (OPM-2): 13 µM | IC50 (NCI-H2030): 9.2 µM | IC50 (K-562): 16 µM | IC50 (HDLM-2): 33 µM | IC50 (HCC1954): 12 µM | IC50 (KARPAS-299): 19 µM | IC50 (BT-483): 20 µM | IC50 (NCI-H716): 13 µM | IC50 (HuH-28): 15 µM | IC50 (Hep3B): 6.7 µM | IC50 (NCI-H2170): 12 µM | IC50 (IMR-32; IMR-32, IMR-32, Brain, TP53 Wild type): 0.43 µM | IC50 (IMR-32; IMR-32, IMR-32 cells): 0.4 µM | IC50 (CEM/C2): 9.3 µM | IC50 (SK-N-F1): 17 µM
